Laboratory results taken from paper PMC9298201, “4‐Sulfamoylphenylalkylamides as Inhibitors of Carbonic Anhydrases Expressed in Vibrio cholerae” (Chemmedchem, 2021).
Values joined by “and” are separate entries in the source; they are usually repeats but may differ in a detail not shown here. Identical values can stand only once. Like-named read-outs stand apart in the source and are kept apart here.

How the values were obtained:
[1] = test system: Vibrio cholerae; parameters: method as in PMID 26235676, PMID 27283786, PMID 23488877; conditions: thus reducing the growth rates of pathogen; cited from earlier work
[2] = target: VchCAβ (Vibrio cholerae, UniProt A0A086SLX8); test: biochemical
VchCAβ, sequence (A0A086SLX8 entry or part of it): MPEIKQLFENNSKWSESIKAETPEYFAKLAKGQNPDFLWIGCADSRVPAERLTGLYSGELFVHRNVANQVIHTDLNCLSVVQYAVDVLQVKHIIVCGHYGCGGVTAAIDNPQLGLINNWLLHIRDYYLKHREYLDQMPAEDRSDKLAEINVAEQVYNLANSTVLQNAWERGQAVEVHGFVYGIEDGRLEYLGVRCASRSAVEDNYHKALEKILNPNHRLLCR

[3] = target: VchCAγ (Vibrio cholerae, UniProt Q9KVT1); test: stopped-flow CO2 hydrase assay, VchCAγ; type: biochemical
VchCAγ, sequence (Q9KVT1 1-184): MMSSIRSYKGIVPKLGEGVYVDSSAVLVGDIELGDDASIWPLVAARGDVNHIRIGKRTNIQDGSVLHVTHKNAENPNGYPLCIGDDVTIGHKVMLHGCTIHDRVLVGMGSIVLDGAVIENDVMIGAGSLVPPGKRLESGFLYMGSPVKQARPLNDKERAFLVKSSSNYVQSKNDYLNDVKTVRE

[4] = target: VchCAα (Vibrio cholerae, UniProt Q9KMP6); test: stopped-flow CO2 hydrase assay, VchCAα; type: biochemical
VchCAα, sequence (Q9KMP6 entry or part of it): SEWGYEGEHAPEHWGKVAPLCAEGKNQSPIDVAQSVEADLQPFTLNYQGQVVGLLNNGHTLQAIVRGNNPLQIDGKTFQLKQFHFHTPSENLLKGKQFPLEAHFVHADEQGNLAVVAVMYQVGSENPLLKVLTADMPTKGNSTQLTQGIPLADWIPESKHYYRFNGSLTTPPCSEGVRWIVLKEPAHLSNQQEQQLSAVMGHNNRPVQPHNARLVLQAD

[5] = target: T1, hCA I (Homo sapiens, UniProt P00915); test: stopped-flow CO2 hydrase assay, hCA I; type: biochemical
T1 construct: made in house
T1 sequence (P00915 whole entry): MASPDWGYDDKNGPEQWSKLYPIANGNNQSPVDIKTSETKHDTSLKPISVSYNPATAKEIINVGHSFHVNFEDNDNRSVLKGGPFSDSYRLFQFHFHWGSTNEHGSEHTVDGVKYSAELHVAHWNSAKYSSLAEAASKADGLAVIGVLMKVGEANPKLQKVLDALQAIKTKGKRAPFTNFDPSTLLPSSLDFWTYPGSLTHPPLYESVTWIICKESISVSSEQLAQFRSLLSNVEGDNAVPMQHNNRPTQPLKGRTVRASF
Procedure: (§1) The uncatalyzed rates were determined in the same manner and subtracted from the total observed rates.

[6] = target: T2, hCA II (Homo sapiens, UniProt P00918); test: stopped-flow CO2 hydrase assay, hCA II; type: biochemical; conditions: errors ±10 %, three assays
T2 construct: made in house
Procedure: as §1

Compound | effect on bicarbonate mediated virulence gene induction [1] | Ki [2] | Ki ([3]; stopped-flow CO2 hydrase assay, errors ±10 %, three assays, read-out: Ki VchCA γ) | Ki [4] | melting point | Ki [3] | Ki [5] | Ki [6] | fold more selective (VchCAγ) over hCA I ([3]; selectivity VchCAγ vs hCA I) | fold more selective (VchCAγ) over hCA II ([3]; selectivity VchCAγ vs hCA II) | fold more active against VchCAα over hCA I ([4]; selectivity VchCAα vs hCA I)
CCOc1ccc2nc(S(N)(=O)=O)sc2c1 [EZA, ethoxzolamide] | suppressed bicarbonate mediated virulence gene induction | – | – | – | – | – | – | – | – | – | –
NCC(=O)Nc1ccc(S(N)(=O)=O)cc1 [compound 10, 2‐amino‐N‐(4‐sulfamoylphenyl)acetamide] | – | 3170 nM | 744 nM | 8 nM | – | – | – | – | – | – | –
C[C@H](N)C(=O)Nc1ccc(S(N)(=O)=O)cc1 [compound 11, (S)‐2‐Amino‐N‐(4‐sulfamoylphenyl)propanamide] | – | 381 nM | – | 35.7 nM | 216 to 217 °C | 23.7 nM | 869 nM | 383 nM | – | – | –
CC(C)[C@H](N)C(=O)Nc1ccc(S(N)(=O)=O)cc1 [compound 12, (S)‐2‐amino‐3‐methyl‐N‐(4‐sulfamoylphenyl)butanamide] | – | 362 nM | – | 659 nM | – | 88.6 nM | 609 nM | 183 nM | – | – | –
NS(=O)(=O)c1ccc(NC(=O)CNC(=O)c2ccccc2)cc1 [compound 13, (S)‐N‐(2‐Oxo‐2‐((4‐sulfamoylphenyl)amino)ethyl)benzamide] | – | 884 nM | – | 0.4 nM | 214 to 216 °C | 563 nM | 524 nM | 19.9 nM | – | – | –
C[C@H](NC(=O)c1ccccc1)C(=O)Nc1ccc(S(N)(=O)=O)cc1 [compound 14, (S)‐N‐(1‐oxo‐1‐((4‐sulfamoylphenyl)amino)propan‐2‐yl)benzamide] | – | 3000 nM | – | 9.5 nM | 260 to 261 °C | 80.5 nM | 46.1 nM | 4.4 nM | – | – | –
CC(C)[C@H](NC(=O)c1ccccc1)C(=O)Nc1ccc(S(N)(=O)=O)cc1 [compound 15, (S)‐N‐(3‐methyl‐1‐oxo‐1‐((4‐sulfamoylphenyl)amino)butan‐2‐yl)benzamide] | – | 389 nM | – | 9.2 nM | 279 to 280 °C | 24.3 nM | 51.5 nM | 3.7 nM | – | – | –
NS(=O)(=O)c1ccc(NC(=O)CNC(=O)c2ccccc2Cl)cc1 [compound 20, 2‐Chloro‐N‐(2‐oxo‐2‐((4‐sulfamoylphenyl)amino)ethyl)benzamide] | – | 796 nM | – | 8.9 nM | 249 to 251 °C | 8930 nM | 564 nM | 29.6 nM | – | – | –
NS(=O)(=O)c1ccc(NC(=O)CNC(=O)c2cccc(Cl)c2)cc1 [compound 21, 3‐Chloro‐N‐(2‐oxo‐2‐((4‐sulfamoylphenyl)amino)ethyl)benzamide] | – | 82.8 nM | – | 18.5 nM | 262 to 264 °C | 364 nM | 127 nM | 14.7 nM | – | – | –
NS(=O)(=O)c1ccc(NC(=O)CNC(=O)c2ccc(Cl)cc2)cc1 [compound 22, 4‐Chloro‐N‐(2‐oxo‐2‐((4‐sulfamoylphenyl)amino)ethyl)benzamide] | – | 59.7 nM | – | 9.6 nM | 226 to 228 °C | 282 nM | 81.3 nM | 3.3 nM | – | – | –
NS(=O)(=O)c1ccc(NC(=O)CNC(=O)c2ccco2)cc1 [compound 31, N‐(2‐Oxo‐2‐((4‐sulfamoylphenyl)amino)ethyl)furan‐2‐carboxamide] | – | 460 nM | – | 6.8 nM | 238 to 240 °C | 7750 nM | 621 nM | 22.2 nM | – | – | –
NS(=O)(=O)c1ccc(NC(=O)CNC(=O)c2cccs2)cc1 [compound 32, N‐(2‐Oxo‐2‐((4‐sulfamoylphenyl)amino)ethyl)thiophene‐2‐carboxamide] | – | 636 nM | – | 4.8 nM | 265 to 267 °C | 6020 nM | 430 nM | 38.5 nM | – | – | –
NS(=O)(=O)c1ccc(CNC(=O)CNC(=O)c2ccccc2)cc1 [compound 36, N‐(2‐Oxo‐2‐((4‐sulfamoylbenzyl)amino)ethyl)benzamide] | – | 82.8 nM | – | 8.2 nM | 211 to 213 °C | 230 nM | 754 nM | 368 nM | – | – | –
C[C@H](NC(=O)c1ccccc1)C(=O)NCc1ccc(S(N)(=O)=O)cc1 [compound 37, (S)‐N‐(1‐Oxo‐1‐((4‐sulfamoylbenzyl)amino)propan‐2‐yl)benzamide] | – | 93.3 nM | – | 56.5 nM | 178 to 180 °C | 261 nM | 722 nM | 302 nM | – | – | –
CC(C)[C@H](NC(=O)c1ccccc1)C(=O)NCc1ccc(S(N)(=O)=O)cc1 [compound 38, (S)‐N‐(3‐Methyl‐1‐oxo‐1‐((4‐sulfamoylbenzyl)amino)butan‐2‐yl)benzamide] | – | 94.6 nM | – | 37.6 nM | 213 to 215 °C | 332 nM | 505 nM | 170 nM | – | – | –
NS(=O)(=O)c1ccc(CNC(=O)CNC(=O)c2ccco2)cc1 [compound 39, N‐(2‐Oxo‐2‐((4‐sulfamoylbenzyl)amino)ethyl)furan‐2‐carboxamide] | – | 394 nM | – | 35.7 nM | – | 734 nM | 1440 nM | 316 nM | – | – | –
C[C@H](NC(=O)c1ccco1)C(=O)NCc1ccc(S(N)(=O)=O)cc1 [compound 40, (S)‐N‐(1‐Oxo‐1‐((4‐sulfamoylbenzyl)amino)propan‐2‐yl)furan‐2‐carboxamide] | – | 612 nM | – | 8.5 nM | – | 92.8 nM | 6280 nM | 6100 nM and 6090 nM | ~70 fold | ~70 fold | ~730 fold
CC(C)[C@H](NC(=O)c1ccco1)C(=O)NCc1ccc(S(N)(=O)=O)cc1 [compound 41, (S)‐N‐(3‐Methyl‐1‐oxo‐1‐((4‐sulfamoylbenzyl)amino)butan‐2‐yl)furan‐2‐carboxamide] | – | 707 nM | – | 97.8 nM | 226 to 228 °C | 95.3 nM | 215 nM | 19.6 nM | – | – | –
NS(=O)(=O)c1ccc(CNC(=O)CNC(=O)c2cccs2)cc1 [compound 42, N‐(2‐Oxo‐2‐((4‐sulfamoylbenzyl)amino)ethyl)thiophene‐2‐carboxamide] | – | 627 nM | – | 9.3 nM | 220 to 222 °C | 244 nM | 828 nM | 87.3 nM | – | – | –
C[C@H](NC(=O)c1cccs1)C(=O)NCc1ccc(S(N)(=O)=O)cc1 [compound 43, (S)‐N‐(1‐Oxo‐1‐((4‐sulfamoylbenzyl)amino)propan‐2‐yl)thiophene‐2‐carboxamide] | – | 691 nM | – | 63.1 nM | 221 to 223 °C | 93.2 nM | 651 nM | 71.1 nM | – | – | –
CC(C)[C@H](NC(=O)c1cccs1)C(=O)NCc1ccc(S(N)(=O)=O)cc1 [compound 44, (S)‐N‐(3‐Methyl‐1‐oxo‐1‐((4‐sulfamoylbenzyl)amino)butan‐2‐yl)thiophene‐2‐carboxamide] | – | 94.4 nM | – | 30.5 nM | 144 to 146 °C | 84.8 nM | 94.9 nM | 18.4 nM | – | – | –
